Laboratory results as given in the supplement of paper PMC10307832.

Tests used:
Experiment in all cases: relative viability (nuclei count vs DMSO), 5 days (fraction); higher = more cells survive
[1] = compound: CN(c1ncccc1CNc1nc(Nc2ccc3c(c2)CC(=O)N3)ncc1C(F)(F)F)S(C)(=O)=O + CC1(C)CCC(c2ccc(Cl)cc2)=C(CN2CCN(c3ccc(C(=O)NS(=O)(=O)c4ccc(N[C@H](CCN5CCOCC5)CSc5ccccc5)c(S(=O)(=O)C(F)(F)F)c4)cc3)CC2)C1 [Navitoclax] (partner 0.5 µM)
Method in brief: (§1)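 Relative viability was taken as the ratio of nuclei in treated wells to nuclei in vehicle wells. Lung cancer cell lines in 1536-well plates received compounds by pin tool one day after seeding, either one drug alone or a fixed anchor-drug dose plus five library-drug doses (not always all listed) in √10 steps. Nuclei were counted on 4× images after 5 days of treatment, and values are medians of duplicate plates.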

[2] = compound: CN(c1ncccc1CNc1nc(Nc2ccc3c(c2)CC(=O)N3)ncc1C(F)(F)F)S(C)(=O)=O + C[C@@H](Oc1cc(-c2cnn(C3CCNCC3)c2)cnc1N)c1c(Cl)ccc(F)c1Cl [Crizotinib] (partner 1 µM)
Method in brief: as §1

[3] = compound: CN(c1ncccc1CNc1nc(Nc2ccc3c(c2)CC(=O)N3)ncc1C(F)(F)F)S(C)(=O)=O + Cc1cc(Nc2cc(N3CCN(C)CC3)nc(Sc3ccc(NC(=O)C4CC4)cc3)n2)n[nH]1 [Tozasertib] (partner 0.1 µM)
Method in brief: as §1

[4] = compound: CN(c1ncccc1CNc1nc(Nc2ccc3c(c2)CC(=O)N3)ncc1C(F)(F)F)S(C)(=O)=O + O=C(CCCCCCC(=O)Nc1ccccc1)NO [Vorinostat] (partner 1 µM)
Method in brief: as §1

Cell Line	relative viability ([1]; first compound 0.01 µM)	relative viability ([1]; first compound 0.03162 µM)	relative viability ([1]; first compound 0.1 µM)	relative viability ([1]; first compound 0.3162 µM)	relative viability ([1]; first compound 1 µM)	relative viability ([2]; first compound 0.01 µM)	relative viability ([2]; first compound 0.03162 µM)	relative viability ([2]; first compound 0.1 µM)	relative viability ([2]; first compound 0.3162 µM)	relative viability ([2]; first compound 1 µM)	relative viability ([3]; first compound 0.01 µM)	relative viability ([3]; first compound 0.03162 µM)	relative viability ([3]; first compound 0.1 µM)	relative viability ([3]; first compound 0.3162 µM)	relative viability ([3]; first compound 1 µM)	relative viability ([4]; first compound 0.01 µM)	relative viability ([4]; first compound 0.03162 µM)	relative viability ([4]; first compound 0.1 µM)	relative viability ([4]; first compound 0.3162 µM)	relative viability ([4]; first compound 1 µM)
SK-MES-1	1.3	1.18	1.21	1.2	0.97	0.943	0.989	0.944	0.983	0.846	0.896	0.923	0.852	0.836	0.47	1.1	1.13	1.09	1.08	0.951
NCI-H1355	0.942	1.02	0.968	0.846	0.776	1.06	1.13	1.02	0.97	0.924	0.538	0.513	0.557	0.496	0.501	0.67	0.708	0.676	0.589	0.623
SW 1573	1.22	0.973	0.988	0.896	1.07	0.874	0.732	0.777	0.843	0.78	0.166	0.198	0.188	0.201	0.16	0.832	1.11	0.696	0.992	0.588
NCI-H2347	0.879	0.69	0.699	0.701	0.592	0.698	0.692	0.61	0.661	0.658	0.544	0.626	0.672	0.44	0.478	0.584	0.615	0.527	0.54	0.413
LCLC-97TM1		0.394	0.25	0.381	0.385		0.434	0.416	0.224	0.181	0.281	0.194	0.256	0.218	0.18	0.644	0.82	0.609	0.751	0.586
EMC-BAC-2	1.18	1.24	1.05	1.16	1.2	0.798	0.817	0.717	0.78	0.778	0.302	0.283	0.287	0.255	0.246	0.46	0.229	0.446	0.44	0.443
NCI-H1975	1.01	1.12	1.11	1.01	0.854	0.999	0.981	0.911	0.96	0.746	0.737	0.793	0.784	0.665	0.46	0.726	0.688	0.666	0.71	0.613
BEN	0.0691	0.0546	0.0649	0.0815	0.0763	0.825	0.949	0.813	0.848	0.848	0.416	0.562	0.506	0.541	0.471	0.546	0.625	0.578	0.544	0.554
NCI-H23	0.867	1.04	1.08	0.969	0.837	0.444	0.483	0.456	0.59	0.457	0.494	0.356	0.407	0.295	0.351	0.659	0.594	0.633	0.714	0.662
NCI-H520	1.05	1.12	1.2	1.19	1.17	0.874	0.795	0.78	0.782	0.601	0.485	0.474	0.467	0.546	0.429	0.678	0.925	0.693	0.746	0.754
CAL-12T	1.25	1.1	1.27	1.27	0.883	0.619	0.538	0.576	0.566	0.593	0.271	0.249	0.274	0.271	0.209	0.91	0.854	0.726	0.767	0.708
EPLC-272H	1.28	1.08	1.16	1.35	0.97	0.912	0.873	0.888	0.968	0.93	0.346	0.234	0.314	0.278	0.182	0.546	0.23	0.408	0.564	0.263
NCI-H2405	0.802	0.993	0.66	0.705	0.679	0.865	0.835	0.801	0.813	0.744	0.696	0.719	0.715	0.534	0.499	0.961	0.724	0.971	0.761	0.868
HCC-15	0.716	0.745	0.639	0.579	0.507	0.821	0.746	0.739	0.707	0.6	0.418	0.555	0.44	0.32	0.254	0.79	0.796	0.741	0.77	0.675
PC-3 [JPC-3]	0.821	0.863	0.823	0.833	0.787	0.968	0.992	1.02	0.927	0.841	0.903	0.907	0.913	0.847	0.832	0.826		0.775	0.795	0.753
NCI-H1944	0.984	1.06	1.11	1	1.11	0.998	1.11	1.08	1.08	1.06	0.238	0.279	0.247	0.261	0.243	0.587	0.508	0.586	0.585	0.534
